Measured values as given in article PMC11945486, “TAS1R2/TAS1R3 Single-Nucleotide Polymorphisms Affect Sweet Taste Receptor Activation by Sweeteners: The SWEET Project” (Nutrients, 2025).
Where two headings read alike, the source gives them in different places. No end group written: not given here.

Molecular target: T1, human TAS1R2-WT/TAS1R3-T716M (Homo sapiens, UniProt Q7RTX0+Q8TE23, T716M)
T1 construct: expressed in transfected cells; host or cells: HEK293T stably expressing Gα16gust44
T1 sequence (Q8TE23 20-839): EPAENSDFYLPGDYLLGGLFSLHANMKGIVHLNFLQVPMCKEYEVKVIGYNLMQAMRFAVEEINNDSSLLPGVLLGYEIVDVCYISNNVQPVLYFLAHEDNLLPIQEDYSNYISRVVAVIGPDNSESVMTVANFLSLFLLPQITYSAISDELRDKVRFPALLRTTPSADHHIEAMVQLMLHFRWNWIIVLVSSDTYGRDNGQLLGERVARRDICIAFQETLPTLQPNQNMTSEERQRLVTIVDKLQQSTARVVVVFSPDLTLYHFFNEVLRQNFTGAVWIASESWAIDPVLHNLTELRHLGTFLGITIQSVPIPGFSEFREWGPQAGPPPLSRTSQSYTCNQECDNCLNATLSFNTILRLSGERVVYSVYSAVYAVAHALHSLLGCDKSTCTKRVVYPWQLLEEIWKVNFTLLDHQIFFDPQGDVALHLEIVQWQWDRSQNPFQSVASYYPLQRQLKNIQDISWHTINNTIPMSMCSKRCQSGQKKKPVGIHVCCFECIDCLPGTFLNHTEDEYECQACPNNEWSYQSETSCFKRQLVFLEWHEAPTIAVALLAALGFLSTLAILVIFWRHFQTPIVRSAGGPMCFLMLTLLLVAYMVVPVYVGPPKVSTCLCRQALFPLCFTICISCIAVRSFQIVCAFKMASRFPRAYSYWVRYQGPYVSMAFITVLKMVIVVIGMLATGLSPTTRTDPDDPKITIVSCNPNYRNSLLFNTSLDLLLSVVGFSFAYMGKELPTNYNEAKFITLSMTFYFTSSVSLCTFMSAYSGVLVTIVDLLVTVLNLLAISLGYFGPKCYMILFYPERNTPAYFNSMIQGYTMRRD
T1 sequence (Q7RTX0 21-852 T716M): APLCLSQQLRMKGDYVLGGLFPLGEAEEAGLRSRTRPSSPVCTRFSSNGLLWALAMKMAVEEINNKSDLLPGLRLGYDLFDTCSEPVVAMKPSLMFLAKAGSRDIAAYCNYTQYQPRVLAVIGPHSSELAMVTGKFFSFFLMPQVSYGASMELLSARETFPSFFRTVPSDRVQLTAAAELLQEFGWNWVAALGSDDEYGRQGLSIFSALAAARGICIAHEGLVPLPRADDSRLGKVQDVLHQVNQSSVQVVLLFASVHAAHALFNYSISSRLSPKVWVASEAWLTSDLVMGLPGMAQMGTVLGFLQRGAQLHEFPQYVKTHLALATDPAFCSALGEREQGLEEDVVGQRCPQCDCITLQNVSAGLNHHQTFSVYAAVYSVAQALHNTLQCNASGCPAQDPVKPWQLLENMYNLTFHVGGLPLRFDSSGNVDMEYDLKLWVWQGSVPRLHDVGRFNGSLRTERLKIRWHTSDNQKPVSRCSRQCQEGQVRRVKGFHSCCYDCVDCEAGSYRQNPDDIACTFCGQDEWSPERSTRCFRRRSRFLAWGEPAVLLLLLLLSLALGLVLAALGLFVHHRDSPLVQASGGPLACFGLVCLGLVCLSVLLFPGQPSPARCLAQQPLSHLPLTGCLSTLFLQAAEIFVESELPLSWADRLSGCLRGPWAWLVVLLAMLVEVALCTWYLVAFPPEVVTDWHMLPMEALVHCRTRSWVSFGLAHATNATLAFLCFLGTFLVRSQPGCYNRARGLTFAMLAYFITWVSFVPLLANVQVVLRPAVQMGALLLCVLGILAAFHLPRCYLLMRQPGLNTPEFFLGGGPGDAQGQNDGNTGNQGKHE
Test: Calcium mobilisation assay, TAS1R2-WT with TAS1R3 variant T716M
Format: cell-based
Details: for Max ΔF/F0: maximal signal amplitude
Text: The coding sequences for TAS1R2 and TAS1R3 were commercially synthesised, and the human codon was optimised for expression in human cells. The coding sequences of human TAS1R2 and TAS1R3 were subcloned and inserted into the mammalian expression vectors pcDNA6/myc-HisA and pcDNA4/myc-HisA (Invitrogen; Thermo Fisher Scientific; Illkirch, France) between the EcoRI and NotI restriction sites, generating the plasmids pcDNA6-TAS1R2 and pcDNA4-TAS1R3, respectively. To increase protein expression in mammalian cells, an upstream start codon was used, which was a sequence called MAX, corresponding to the QBI SP163 element also described in pcDNA4-HisMax (Invitrogen; Thermo Fisher Scientific; Illkirch, France). To measure the expression level of the receptor by immunohistochemistry, we used the FLAG sequence ([…]) in the C-terminal position, which encodes the FLAG tag epitope. SNP variants of TAS1R2 and TAS1R3 were constructed based on […], respectively, using site-directed mutagenesis (Genewiz; Leipzig, Germany).
The HEK293T cells were kindly provided by Jay P. Slack (Givaudan Flavors Corporation; Cincinnati, OH, USA). HEK293T cells stably transfected with Gα16gust44 [43, 67] were seeded in poly-D-lysine-coated clear-bottom black 96-well plates (0.35 × 10^5 cells/well) in high-glucose DMEM supplemented with 2 mM GlutaMAX, 10% dialysed foetal bovine serum with penicillin/streptomycin and G418 (400 μg/mL) at 37 °C and 6.3% CO2 in a humidified atmosphere as previously reported. […] As a negative control, HEK293T cells were mock-transfected with the empty expression vector. After a further 24 h of incubation, the HEK293T cells were washed with C1 buffer (130 mM NaCl, 5 mM KCl, 10 mM HEPES pH 7.4 and 2 mM CaCl2). The 96-well plates containing the cells were then stimulated with sweet-tasting compounds. […] Different concentration ranges were tested depending on the sweet compound injected. The Ca^2+ changes were expressed as fractional changes in fluorescent light intensity: ΔF/F = (F − F0)/F0, where F was the fluorescent light intensity at each point, and F0 was the value of emitted fluorescent light prior to stimulus application. To calculate dose–response relationships, the changes in fluorescence upon stimulus application were averaged, mock-subtracted and baseline-corrected. The dose–response data obtained were adjusted using a 4-parameter logistic equation. The half-maximal effective concentrations (EC50 values) and maximal signal amplitudes were calculated using SigmaPlot software (version 15.0) (Systat Software; San Jose, CA, USA).
For in vitro calcium mobilisation assay performed on hTAS1R2-SNPs, hTAS1R3-SNPs and mTAS1R3-I60T, 6 to 7 concentrations were tested for each sweet compound, plus buffer alone. All concentration–receptor combinations were measured in duplicate, and each experiment was repeated at least 4 times (8 wells/concentration). Results were expressed for each concentration as ΔF/F mean ± SEM and represented as dose–response curves.

Compound	R1 = Variant EC50/WT EC50	Max ΔF/F0	EC50 (read-out: EC50) [µM]	EC50 (brazzein) [µg/mL]
CC1=CC(=O)NS(=O)(=O)O1 [Acesulfame K, acesulfame K]	1.2	0.30 ± 0.01	739 ± 72	
O=S(=O)(O)NC1CCCCC1 [Cyclamate, cyclamate]			1860 ± 45	
C[C@H](CC[C@@H](O[C@@H]1O[C@H](CO[C@@H]2O[C@H](CO)[C@@H](O)[C@H](O)[C@H]2O)[C@@H](O)[C@H](O)[C@H]1O[C@@H]1O[C@H](CO)[C@@H](O)[C@H](O)[C@H]1O)C(C)(C)O)[C@H]1CC[C@@]2(C)[C@@H]3CC=C4[C@@H](CC[C@H](O[C@@H]5O[C@H](CO[C@@H]6O[C@H](CO)[C@@H](O)[C@H](O)[C@H]6O)[C@@H](O)[C@H](O)[C@H]5O)C4(C)C)[C@]3(C)[C@H](O)C[C@]12C [Mogroside V, mogroside V]	1.2	1.01 ± 0.01	36.4 ± 1	
COc1ccc(CCC(=O)c2c(O)cc(O[C@@H]3O[C@H](CO)[C@@H](O)[C@H](O)[C@H]3O[C@@H]3O[C@@H](C)[C@H](O)[C@@H](O)[C@H]3O)cc2O)cc1O [NHDC, neohesperidin dihydrochalcone]	1.1	0.84 ± 0.09	55.4 ± 18.4	
COC(=O)[C@H](Cc1ccccc1)NC(=O)[C@H](CC(=O)O)NCCC(C)(C)C [Neotame]	1.1	0.54 ± 0.01	1.3 ± 0.06	
C=C(C)[C@@H]1CC=C(/C=N/O)CC1 [Perillartine, perillartine]	1.6	1.73 ± 0.33	21.6 ± 11.4	
C=C1C[C@@]23CC[C@H]4[C@@](C)(CCC[C@@]4(C)C(=O)O[C@@H]4O[C@H](CO)[C@@H](O)[C@H](O[C@@H]5O[C@H](CO)[C@@H](O)[C@H](O)[C@H]5O)[C@H]4O[C@@H]4O[C@H](CO)[C@@H](O)[C@H](O)[C@H]4O)[C@@H]2CC[C@]1(O[C@@H]1O[C@H](CO)[C@@H](O)[C@H](O[C@@H]2O[C@H](CO)[C@@H](O)[C@H](O)[C@H]2O)[C@H]1O[C@@H]1O[C@H](CO)[C@@H](O)[C@H](O)[C@H]1O)C3 [Rebaudioside M, rebaudioside M]	0.8	1.10 ± 0.06	30.7 ± 4	
OC[C@H]1O[C@H](O[C@]2(CCl)O[C@H](CCl)[C@@H](O)[C@@H]2O)[C@H](O)[C@@H](O)[C@H]1Cl [Sucralose]	1.5	0.47 ± 0.02	161 ± 14	
brazzein (QDKCKKVYENYPVSKCQLANQCNYDCKLDKHARSGECFYDEKRNLQCICDYCEY; ends and bridges not checked; cysteine pairing not given here; UniProt P56552 1-54, looked up) [sweet-tasting protein obtained by recombinant production using the yeast Pichia pastoris]	1.0	0.94 ± 0.04		112.6 ± 13.6
thaumatin	1.0	0.76 ± 0.04	10 ± 0.5	
